Laboratory results: patent publication US4875922A, “Pyrimidine derivatives” (Imperial Chemical Industries PLC, priority 1986, dated 1989)

Columns and labels:
Tomato = assay: Whole plant screen for plant growth regulator activity, tomato (TO); format: in vivo, Tomato (Ailsa Craig); conditions: 4000 ppm (4 kg/ha), visual score after 2-6 weeks
Summary of the method: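 Tomato (Ailsa Craig), one plant per 3-inch peat pot, sprayed at 2–2½ leaves with 4000 ppm (4 kg/ha in 1000 l/ha) by track sprayer. Glasshouse 25 °C day/22 °C night, 16 h photoperiod; morphology visually scored after 2–6 weeks against formulation blanks.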

Pyricularia oryzae = format: in vivo; conditions: 100 ppm spray plus root drench (approximately 40 ppm a.i/dry soil), one or two days before inoculation
Wheat = assay: Whole plant screen for plant growth regulator activity, wheat (WW); format: in vivo, Wheat (Timmo); conditions: for G = Greening effect / I = Interligular or internodal length reduction / R = Retardation / T = Tillering or side shooting: WW, 4000 ppm (4 kg/ha), visual score after 2-6 weeks; for T = Tillering or side shooting: * = decrease in tillering
Summary of the method: (§1)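 Visual assessment of morphological characteristics, 2-6 weeks after treatment, relative to formulation-blank controls. Plants had received a 4000 ppm tracksprayer application (4 kg/ha at 1000 l/ha) and were grown under supplementary lighting giving 16 h days, with the temperate cereals wheat and barley cooler (16/13° C.) than maize and rice (25/22° C.).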

Maize = assay: Whole plant screen for plant growth regulator activity, maize (MZ); format: in vivo, Maize (Earliking); conditions: 4000 ppm (4 kg/ha), visual score after 2-6 weeks
Experimental: Compounds 1 to 3 in Table 1 were tested for plant growth regulator activity against five species for various growth effects relevant to plant growth regulation.
The plant species used in this screen are presented in Table II with the leaf stage at which they were sprayed. Each chemical was applied at 4000 ppm (4 kg/ha in a 1000 l/ha field volume) using a tracksprayer and a SS8004E (Teejet) nozzle.
After spray the plants were grown in a glasshouse with 25° C. day/22° C. night temperatures and supplementary lighting was supplied when necessary (from mercury vapour lamps), to provide a 16 hour photoperiod. The exception to this were the temperate cereals, wheat and barley which were grown in 16° C. day/13° C. night temperatures.
After 2-6 weeks in the glasshouse, depending on the time of year, the plants were visually assessed for morphological characteristics. Formulation blanks were used as controls to assess the plants. […]

Erysiphe graminis = assay: Foliar fungal disease control, Erysiphe graminis (barley); format: in vivo; conditions: 100 ppm spray plus root drench (approximately 40 ppm a.i/dry soil); inoculated 24 hours before treatment
Apples = assay: Intermediate Retardant Test, apples, foliar spray compared with root drench; format: in vivo, Apples (Red Delicious); conditions: 672 h, approximately 28 days, Table IX, read-out: Percentage Reduction in Height of Apples (Compared to formulation blank)
Summary of the method: (§2)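 Overall spray at 500 and 2000 ppm (0.5 and 2 kg/ha^-1 at 1000 l/ha^-1); for apples, a 2000 ppm foliar-only spray was also compared with a 2000 ppm root drench. Rice grew in flooded 4" paddy pots, barley and apples in 4" pots. About 28 days after treatment, height (to top-most ligule, or to apex for apples) was recorded as % reduction versus formulation blank.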

Spring Barley = assay: Intermediate Retardant Test, spring barley; format: in vivo, Spring Barley (Atem/kym); conditions: Hordeum vulgare, 672 h, overall spray, approximately 28 days, Table VII, read-out: Percentage Reduction in Height of Spring Barley (Compared to formulation blank)
Summary of the method: as §2

Rice [1] = assay: Whole plant screen for plant growth regulator activity, rice (RC); format: in vivo, Rice (Ishikari); conditions: 4000 ppm (4 kg/ha), visual score after 2-6 weeks
Summary of the method: as §1

Phytophthora infestans = format: in vivo; conditions: 100 ppm spray plus root drench (approximately 40 ppm a.i/dry soil), one or two days before inoculation
Apple [2] = assay: Whole plant screen for plant growth regulator activity, apple (AP); format: in vivo, Apple (Red Delicious); conditions: 4000 ppm (4 kg/ha), visual score after 2-6 weeks
Summary of the method: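 Visual scoring of morphological effects after 2-6 weeks in glasshouse, compared with formulation-blank controls. Spray application was 4000 ppm, equal to 4 kg/ha at 1000 l/ha field volume, at set leaf stages. Growth at 25° C./22° C. day/night with 16 hour photoperiod; temperate cereals wheat and barley at 16° C./13° C.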

Rice [3] = assay: Intermediate Retardant Test, rice; format: in vivo, Rice (Ishikari); conditions: Oryza sativa, 672 h, overall spray, approximately 28 days, Table VI, read-out: Percentage Reduction in Height of Rice (Compared to formulation blank)
Summary of the method: as §2

Puccinia recondita = assay: Foliar fungal disease control, Puccinia recondita (wheat); format: in vivo; conditions: 100 ppm spray plus root drench (approximately 40 ppm a.i/dry soil), one or two days before inoculation
Cercospora arachidicola = assay: Foliar fungal disease control, Cercospora arachidicola (peanut); format: in vivo; conditions: 100 ppm spray plus root drench (approximately 40 ppm a.i/dry soil), one or two days before inoculation
Barley [4] = assay: Whole plant screen for plant growth regulator activity, barley (BR); format: in vivo, Barley (Atem); conditions: BR, 4000 ppm (4 kg/ha), visual score after 2-6 weeks; for T = Tillering or side shooting: * = decrease in tillering
Summary of the method: as §1

Sunflower = assay: Modified Intermediate Retardant Test, sunflower; format: in vivo; conditions: 2000 g/ha, height to apex 14 days after treatment; for […] IN HEIGHT, SR (Foliar): foliar only spray; for […] IN HEIGHT, SR (Root): root drench
Description: (§3) The general Intermediate Retardant Test described in Example 62 was modified by the addition of Sunflowers (SR) and the variety and growth stages at spray are outlined in Table XIII. Apart from the changes indicated, growing conditions for barley, rice and apples were as in Example 62 and growing conditions for Sunflower were as for apples. Test compounds were applied to barley, rice and apples as whole plant (overall) sprays at a rate of 2000 g/ha. Test compounds were applied to sunflowers separately as a foliar only spray at a rate of 2000 g/ha and as a root drench at a rate of 2000 g/ha.
(§4) Barley and rice were assessed for height to topmost ligule 21 days after treatment; apples were assessed for height to apex at 21 days after treatment; and sunflowers were assessed for height to apex at 14 days after treatment. The results are expressed as percentage reduction in height compared with the formulation blank in Table XIV.

Rice [5] = assay: Modified Intermediate Retardant Test, rice; format: in vivo, Rice (Ishikari); conditions: 2000 g/ha, overall spray, height to topmost ligule 21 days after treatment
Description: as §3, §4

Barley [6] = assay: Modified Intermediate Retardant Test, barley; format: in vivo, Barley (Atem); conditions: 2000 g/ha, overall spray, height to topmost ligule 21 days after treatment
Description: as §3, §4

Apple [7] = assay: Modified Intermediate Retardant Test, apples; format: in vivo, Apple (Red Delicious); conditions: 2000 g/ha, overall spray, height to apex 21 days after treatment
Description: as §3, §4

Plasmopara viticola = assay: Foliar fungal disease control, Plasmopara viticola (vine); format: in vivo; conditions: 100 ppm spray plus root drench (approximately 40 ppm a.i/dry soil), one or two days before inoculation

Structure (SMILES) | G = Greening effect (Tomato) | I = Interligular or internodal length reduction (Tomato) | R = Retardation (Tomato) | G = Greening effect (Wheat) | I = Interligular or internodal length reduction (Wheat) | R = Retardation (Wheat) | T = Tillering or side shooting (Wheat) | G = Greening effect (Barley [4]) | I = Interligular or internodal length reduction (Barley [4]) | R = Retardation (Barley [4]) | T = Tillering or side shooting (Barley [4]) | […] IN HEIGHT, SR (Foliar) (Sunflower) [%] | […] IN HEIGHT, SR (Root) (Sunflower) [%] | […] IN HEIGHT, RC (Rice [5]) [%] | […] IN HEIGHT, BR (Barley [6]) [%] | […] IN HEIGHT, AP (Apple [7]) [%] | other results
CC(C)CCCC(O)(c1cncnc1)C(C)C (centres unmarked) [Compound 7, 2-Methyl-1-(4-methylpentyl)-1-(pyrimidin-5-yl)propan-1-ol] | 2 (31-60%) | 3 (61-100%) | 3 (61-100%) | 2 (31-60%) | 3 (61-100%) | 3 (61-100%) | 3 (61-100%) | 2 (31-60%) | 2 (31-60%) | 2 (31-60%) | 1 (10-30%) | – | – | – | – | – | disease control, P[…] (RICE) (Pyricularia oryzae): 0 (60-100% of disease on untreated plants); G = Greening effect (Maize): 1 (10-30%); I = Interligular or internodal length reduction (Maize): 2 (31-60%); R = Retardation (Maize): 2 (31-60%); disease control, ERYSIPHE GRAMINIS (BARLEY) (Erysiphe graminis): 4; percent reduction in plant height at 2000 ppm (Apples; 2000 ppm (Foliar)): 12%; percent reduction in plant height at 2000 µg/mL (Apples; soil, 2000 pmm (Root), root drench): 45%; percent reduction in plant height at 500 ppm (Spring Barley; 500 ppm): 23%; percent reduction in plant height at 2000 ppm (Spring Barley; 2000 ppm): 47%; G = Greening effect (Rice [1]): 1 (10-30%); I = Interligular or internodal length reduction (Rice [1]): 2 (31-60%); R = Retardation (Rice [1]): 2 (31-60%); disease control, PH[…] (TOMATO) (Phytophthora infestans): 0 (60-100% of disease on untreated plants); G = Greening effect (Apple [2]): 1 (10-30%); I = Interligular or internodal length reduction (Apple [2]): 2 (31-60%); R = Retardation (Apple [2]): 3 (61-100%); Percent reduction in rice height vs formulation blank at 500 ppm (Rice [3]; 500 ppm): 31%; Percent reduction in rice height vs formulation blank at 2000 ppm (Rice [3]; 2000 ppm): 45%; disease control, PUCCINIA RECONDITA (WHEAT) (Puccinia recondita): 0 (60-100% of disease on untreated plants); disease control, CERCOSPORA ARACHIDICOLA (PEANUT) (Cercospora arachidicola): 0 (60-100% of disease on untreated plants)
CCCCCC#CC(O)(c1cncnc1)C(C)C (centres unmarked) [Compound 23] | 2 (31-60%) | – | 2 (31-60%) | 2 (31-60%) | – | 2 (31-60%) | – | 2 (31-60%) | 3 (61-100%) | 3 (61-100%) | 1 (10-30%) | 2 | 45 | 54 | 29 | 50 | –
CCCCCCC#CC(O)(c1cncnc1)C(C)C (centres unmarked) [Compound 24] | 2 (31-60%) | – | 1 (10-30%) | 2 (31-60%) | – | 1 (10-30%) | – | – | 2 (31-60%) | 2 (31-60%) | 2* | 0 | 3 | 17 | 6 | 37 | –
CCC/C=C\C(O)(c1cncnc1)C(C)C (centres unmarked) [Compound 25, 2-methyl-1-(pent-1-ene)-1-(pyrimidin-5-yl)-propan-1-ol] | 2 (31-60%) | 1 (10-30%) | 1 (10-30%) | 2 (31-60%) | 1 (10-30%) | 1 (10-30%) | – | 3 (61-100%) | 3 (61-100%) | 3 (61-100%) | 1* | 0 | 54 | 55 | 52 | 31 | –
CCCCC#CC(O)(c1cncnc1)C(C)(C)C (centres unmarked) [Compound 31] | 2 (31-60%) | 3 (61-100%) | 3 (61-100%) | 3 (61-100%) | 3 (61-100%) | – | 1 (10-30%) | 3 (61-100%) | 3 (61-100%) | 3 (61-100%) | 1 (10-30%) | 19 | 51 | 77 | 69 | 50 | A = Apical damage (Wheat; 4000 ppm): 1 (10-30%)
CCCCCC#CC(O)(c1cncnc1)C(C)(C)C (centres unmarked) [Compound 32] | 2 (31-60%) | 1 (10-30%) | 2 (31-60%) | 1 (10-30%) | 3 (61-100%) | 2 (31-60%) | – | 2 (31-60%) | 3 (61-100%) | 3 (61-100%) | 1 (10-30%) | 13 | 37 | 46 | 17 | 30 | –
CC(C)(C)/C=C/C(O)(c1cncnc1)C1(C)CC1 (centres unmarked) [Compound 55] | 2 (31-60%) | 2 (31-60%) | 2 (31-60%) | 1 (10-30%) | 2 (31-60%) | 2 (31-60%) | 1 (10-30%) | – | – | – | 3 (61-100%) | – | – | – | – | – | disease control, P[…] (RICE) (Pyricularia oryzae): 0 (60-100% of disease on untreated plants); disease control, ERYSIPHE GRAMINIS (BARLEY) (Erysiphe graminis): 4; disease control, PH[…] (TOMATO) (Phytophthora infestans): 0 (60-100% of disease on untreated plants); disease control, PLASMOPARA VITICOLA (VINE) (Plasmopara viticola): 0 (60-100% of disease on untreated plants); disease control, PUCCINIA RECONDITA (WHEAT) (Puccinia recondita): 4; disease control, CERCOSPORA ARACHIDICOLA (PEANUT) (Cercospora arachidicola): 4
